Experimental data as given in ChEMBL document CHEMBL2417425, “Design and synthesis of positional isomers of 5 and 6-bromo-1-[(phenyl)sulfonyl]-2-[(4-nitrophenoxy)methyl]-1H-benzimidazoles as possible antimicrobial and antitubercular agents” (2013).
In brackets after ≈: the same amount, converted by molar mass.

Key:
Format in all cases: functional
Escherichia coli = assay: Antibacterial activity against Escherichia coli assessed as growth inhibition by serial dilution method
[1] = system: Mycolicibacterium fortuitum; assay: Antimycobacterial activity against Mycobacterium fortuitum ATCC 19542 assessed as growth inhibition at 0.3125 to 5 ug/mL by resazurin assay
[2] = system: Mycolicibacterium fortuitum; assay: Antimycobacterial activity against Mycobacterium fortuitum ATCC 19542 assessed as growth inhibition at 1 to 100 ug/mL by resazurin assay
Staphylococcus aureus [3] = assay: Antibacterial activity against Staphylococcus aureus assessed as growth inhibition by serial dilution method
Staphylococcus aureus [4] = assay: Potency index, ratio of ciprofloxacin MIC to compound MIC for Staphylococcus aureus
Klebsiella pneumoniae [5] = assay: Potency index, ratio of ciprofloxacin MIC to compound MIC for Klebsiella pneumoniae
Aspergillus flavus = assay: Antifungal activity against Aspergillus flavus assessed as growth inhibition by serial dilution method
[6] = system: Mycobacterium tuberculosis; assay: Antimycobacterial activity against Mycobacterium tuberculosis H37Rv assessed as growth inhibition at 1 to 100 ug/mL by resazurin assay
[7] = system: Mycobacterium tuberculosis; assay: Antimycobacterial activity against Mycobacterium tuberculosis H37Rv assessed as growth inhibition at 0.3125 to 5 ug/mL by resazurin assay
[8] = system: Mycolicibacterium smegmatis; assay: Antimycobacterial activity against Mycobacterium smegmatis ATCC 19420 assessed as growth inhibition at 0.3125 to 5 ug/mL by resazurin assay
[9] = system: Mycolicibacterium smegmatis; assay: Antimycobacterial activity against Mycobacterium smegmatis ATCC 19420 assessed as growth inhibition at 1 to 100 ug/mL by resazurin assay
Candida albicans = assay: Antifungal activity against Candida albicans assessed as growth inhibition by serial dilution method
Rhizopus = assay: Antifungal activity against Rhizopus sp. assessed as growth inhibition by serial dilution method
Klebsiella pneumoniae [10] = assay: Antibacterial activity against Klebsiella pneumoniae assessed as growth inhibition by serial dilution method

**Q.** `O=[N+]([O-])c1ccc(OCc2nc3cc(Br)ccc3n2S(=O)(=O)c2cc(F)ccc2F)cc1` was tested. Which MIC (Escherichia coli) did it give?
**A.** Its MIC is 32 µg/mL (≈ 61 µM).

**Q.** What about the MIC [1] of the same molecule?
**A.** Its MIC is 10 µg/mL (≈ 19.1 µM).

**Q.** And the MIC [2]?
**A.** The MIC was 10 µg/mL (≈ 19.1 µM).

**Q.** And the MIC (Staphylococcus aureus [3])?
**A.** Its MIC is 4 µg/mL (≈ 7.63 µM).

**Q.** What about the PI (Staphylococcus aureus [4]) of the same molecule?
**A.** The PI was 1.

**Q.** What about the PI (Klebsiella pneumoniae [5]) of the same molecule?
**A.** The PI was 2.

**Q.** What about the MIC (Aspergillus flavus) of the same molecule?
**A.** The MIC was 8 µg/mL (≈ 15.3 µM).

**Q.** What about the “growth inhibition (GI)” value [6] of the same molecule?
**A.** Its value is 95%.

**Q.** What about the MIC ([6]; Mycobacterium tuberculosis, H37Rv) of the same molecule?
**A.** The MIC was 1 µg/mL (≈ 1.91 µM).

**Q.** And the MIC [7]?
**A.** Its MIC is 0.625 µg/mL (≈ 1.19 µM).

**Q.** What about the MIC [8] of the same molecule?
**A.** The MIC was 10 µg/mL (≈ 19.1 µM).

**Q.** What about the MIC [9] of the same molecule?
**A.** The MIC was 10 µg/mL (≈ 19.1 µM).

**Q.** What about the MIC (Candida albicans) of the same molecule?
**A.** Its MIC is 16 µg/mL (≈ 30.5 µM).

**Q.** What about the MIC (Rhizopus) of the same molecule?
**A.** The MIC was 16 µg/mL (≈ 30.5 µM).

**Q.** And the MIC (Klebsiella pneumoniae [10])?
**A.** The MIC was 4 µg/mL (≈ 7.63 µM).
